From ChEMBL document CHEMBL3991601, “The target landscape of clinical kinase drugs” (Science, 2017)
Calls of active or inactive are those of the source. For most assays here, no stated cut-off is given here; in the data, actives have a measured Kd and inactives only a lower limit.

How the values were obtained:
[1] = target: T1, Serine/threonine-protein kinase PLK4 (Homo sapiens, UniProt O00444)
T1 sequence (O00444 whole entry): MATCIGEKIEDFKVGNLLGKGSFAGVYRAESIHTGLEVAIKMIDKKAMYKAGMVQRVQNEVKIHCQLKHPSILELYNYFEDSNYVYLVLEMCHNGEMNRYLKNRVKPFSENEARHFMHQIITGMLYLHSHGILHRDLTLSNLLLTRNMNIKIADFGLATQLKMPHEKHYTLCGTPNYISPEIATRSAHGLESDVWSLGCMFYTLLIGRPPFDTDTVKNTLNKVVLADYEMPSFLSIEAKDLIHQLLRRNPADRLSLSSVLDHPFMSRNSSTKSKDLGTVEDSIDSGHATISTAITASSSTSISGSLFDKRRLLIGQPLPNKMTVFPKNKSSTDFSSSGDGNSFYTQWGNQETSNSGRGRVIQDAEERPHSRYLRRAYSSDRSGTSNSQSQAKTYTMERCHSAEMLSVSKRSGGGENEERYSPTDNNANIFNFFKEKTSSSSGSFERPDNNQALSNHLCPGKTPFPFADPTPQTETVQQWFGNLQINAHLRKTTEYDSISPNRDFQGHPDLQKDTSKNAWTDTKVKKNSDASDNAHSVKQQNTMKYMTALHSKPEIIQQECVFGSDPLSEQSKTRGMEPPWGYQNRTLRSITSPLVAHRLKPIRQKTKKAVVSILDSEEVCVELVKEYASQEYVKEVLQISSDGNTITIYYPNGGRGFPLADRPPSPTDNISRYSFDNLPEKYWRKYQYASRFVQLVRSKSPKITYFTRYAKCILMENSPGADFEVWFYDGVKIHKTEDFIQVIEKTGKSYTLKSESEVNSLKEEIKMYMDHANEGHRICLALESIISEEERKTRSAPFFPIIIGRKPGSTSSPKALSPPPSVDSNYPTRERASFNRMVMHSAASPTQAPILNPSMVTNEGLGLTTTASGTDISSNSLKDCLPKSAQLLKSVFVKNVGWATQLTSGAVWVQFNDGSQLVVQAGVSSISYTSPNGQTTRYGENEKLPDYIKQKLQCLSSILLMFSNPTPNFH

[2] = target: T2, Delta(24)-sterol reductase (Homo sapiens, UniProt Q15392)
T2 sequence (Q15392 whole entry): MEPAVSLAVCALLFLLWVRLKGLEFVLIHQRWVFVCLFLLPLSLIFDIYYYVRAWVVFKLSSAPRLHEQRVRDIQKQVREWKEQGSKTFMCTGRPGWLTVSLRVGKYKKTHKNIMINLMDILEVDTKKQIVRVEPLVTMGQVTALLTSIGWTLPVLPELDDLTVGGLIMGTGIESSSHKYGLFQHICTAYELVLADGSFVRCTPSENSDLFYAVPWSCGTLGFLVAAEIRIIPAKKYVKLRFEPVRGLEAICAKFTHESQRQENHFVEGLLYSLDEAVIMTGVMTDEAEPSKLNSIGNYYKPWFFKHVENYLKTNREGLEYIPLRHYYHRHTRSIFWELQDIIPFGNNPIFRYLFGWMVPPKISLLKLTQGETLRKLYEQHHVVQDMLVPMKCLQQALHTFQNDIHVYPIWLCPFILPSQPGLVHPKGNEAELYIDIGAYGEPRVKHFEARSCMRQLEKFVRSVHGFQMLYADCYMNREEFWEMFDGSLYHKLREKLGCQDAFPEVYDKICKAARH

[3] = target: Non-receptor tyrosine-protein kinase TYK2 (Homo sapiens, UniProt P29597)
Non-receptor tyrosine-protein kinase TYK2, sequence (P29597 whole entry): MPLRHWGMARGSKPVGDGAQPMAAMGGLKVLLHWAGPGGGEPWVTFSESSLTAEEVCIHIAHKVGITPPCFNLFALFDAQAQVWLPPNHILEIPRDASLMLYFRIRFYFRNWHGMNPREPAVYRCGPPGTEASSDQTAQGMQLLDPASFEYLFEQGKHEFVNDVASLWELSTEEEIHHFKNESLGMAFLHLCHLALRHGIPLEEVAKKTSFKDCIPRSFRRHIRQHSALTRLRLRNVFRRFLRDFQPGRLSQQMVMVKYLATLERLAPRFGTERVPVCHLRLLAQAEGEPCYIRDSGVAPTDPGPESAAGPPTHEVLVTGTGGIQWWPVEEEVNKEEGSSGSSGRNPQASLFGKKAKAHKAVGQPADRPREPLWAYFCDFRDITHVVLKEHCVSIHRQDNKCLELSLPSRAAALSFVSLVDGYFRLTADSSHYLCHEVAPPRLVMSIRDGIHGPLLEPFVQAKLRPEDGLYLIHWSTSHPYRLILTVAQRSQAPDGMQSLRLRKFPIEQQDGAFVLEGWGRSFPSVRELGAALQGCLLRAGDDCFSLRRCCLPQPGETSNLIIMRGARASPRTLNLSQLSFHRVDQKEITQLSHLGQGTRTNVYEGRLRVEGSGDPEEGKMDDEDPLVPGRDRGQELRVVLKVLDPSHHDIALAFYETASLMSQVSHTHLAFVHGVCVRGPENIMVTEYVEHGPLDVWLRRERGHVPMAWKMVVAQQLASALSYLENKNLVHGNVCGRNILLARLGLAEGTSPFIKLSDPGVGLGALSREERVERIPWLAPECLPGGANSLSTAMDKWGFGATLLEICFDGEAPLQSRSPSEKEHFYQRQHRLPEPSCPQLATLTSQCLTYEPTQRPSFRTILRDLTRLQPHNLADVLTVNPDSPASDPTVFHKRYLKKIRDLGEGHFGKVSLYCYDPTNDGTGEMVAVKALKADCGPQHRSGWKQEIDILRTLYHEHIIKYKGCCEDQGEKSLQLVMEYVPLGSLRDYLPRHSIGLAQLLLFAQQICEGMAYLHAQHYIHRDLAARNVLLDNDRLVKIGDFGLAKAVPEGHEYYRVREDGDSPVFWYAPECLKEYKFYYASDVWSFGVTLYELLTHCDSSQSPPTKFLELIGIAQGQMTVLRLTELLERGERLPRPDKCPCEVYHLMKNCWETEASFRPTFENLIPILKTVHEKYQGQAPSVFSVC

[4] = target: T3, Serine/threonine-protein kinase ULK3 (Homo sapiens, UniProt Q6PHR2)
T3 sequence (Q6PHR2 whole entry): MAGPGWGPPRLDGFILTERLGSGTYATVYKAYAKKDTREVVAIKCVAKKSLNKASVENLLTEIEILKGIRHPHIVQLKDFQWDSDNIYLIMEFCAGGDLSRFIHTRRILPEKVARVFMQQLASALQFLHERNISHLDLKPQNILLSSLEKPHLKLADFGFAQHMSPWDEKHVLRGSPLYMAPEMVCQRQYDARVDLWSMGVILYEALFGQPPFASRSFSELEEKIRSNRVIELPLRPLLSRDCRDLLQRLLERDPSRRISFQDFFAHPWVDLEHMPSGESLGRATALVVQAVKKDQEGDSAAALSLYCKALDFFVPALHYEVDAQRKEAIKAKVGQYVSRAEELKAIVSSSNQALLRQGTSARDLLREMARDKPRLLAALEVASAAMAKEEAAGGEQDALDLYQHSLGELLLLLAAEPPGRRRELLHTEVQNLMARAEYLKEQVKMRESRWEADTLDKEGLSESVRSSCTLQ

[5] = target: Macrophage-stimulating protein receptor (Homo sapiens, UniProt Q04912)
Macrophage-stimulating protein receptor, sequence (Q04912 25-304 limits assumed): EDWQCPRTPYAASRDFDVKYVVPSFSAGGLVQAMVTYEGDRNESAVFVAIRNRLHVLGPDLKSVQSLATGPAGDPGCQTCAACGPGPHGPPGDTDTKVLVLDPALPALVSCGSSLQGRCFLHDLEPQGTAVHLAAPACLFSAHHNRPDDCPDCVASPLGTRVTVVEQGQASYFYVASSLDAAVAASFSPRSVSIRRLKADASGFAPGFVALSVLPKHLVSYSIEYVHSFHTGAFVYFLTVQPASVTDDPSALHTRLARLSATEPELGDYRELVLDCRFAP
Macrophage-stimulating protein receptor, sequence (Q04912 310-1400 limits assumed): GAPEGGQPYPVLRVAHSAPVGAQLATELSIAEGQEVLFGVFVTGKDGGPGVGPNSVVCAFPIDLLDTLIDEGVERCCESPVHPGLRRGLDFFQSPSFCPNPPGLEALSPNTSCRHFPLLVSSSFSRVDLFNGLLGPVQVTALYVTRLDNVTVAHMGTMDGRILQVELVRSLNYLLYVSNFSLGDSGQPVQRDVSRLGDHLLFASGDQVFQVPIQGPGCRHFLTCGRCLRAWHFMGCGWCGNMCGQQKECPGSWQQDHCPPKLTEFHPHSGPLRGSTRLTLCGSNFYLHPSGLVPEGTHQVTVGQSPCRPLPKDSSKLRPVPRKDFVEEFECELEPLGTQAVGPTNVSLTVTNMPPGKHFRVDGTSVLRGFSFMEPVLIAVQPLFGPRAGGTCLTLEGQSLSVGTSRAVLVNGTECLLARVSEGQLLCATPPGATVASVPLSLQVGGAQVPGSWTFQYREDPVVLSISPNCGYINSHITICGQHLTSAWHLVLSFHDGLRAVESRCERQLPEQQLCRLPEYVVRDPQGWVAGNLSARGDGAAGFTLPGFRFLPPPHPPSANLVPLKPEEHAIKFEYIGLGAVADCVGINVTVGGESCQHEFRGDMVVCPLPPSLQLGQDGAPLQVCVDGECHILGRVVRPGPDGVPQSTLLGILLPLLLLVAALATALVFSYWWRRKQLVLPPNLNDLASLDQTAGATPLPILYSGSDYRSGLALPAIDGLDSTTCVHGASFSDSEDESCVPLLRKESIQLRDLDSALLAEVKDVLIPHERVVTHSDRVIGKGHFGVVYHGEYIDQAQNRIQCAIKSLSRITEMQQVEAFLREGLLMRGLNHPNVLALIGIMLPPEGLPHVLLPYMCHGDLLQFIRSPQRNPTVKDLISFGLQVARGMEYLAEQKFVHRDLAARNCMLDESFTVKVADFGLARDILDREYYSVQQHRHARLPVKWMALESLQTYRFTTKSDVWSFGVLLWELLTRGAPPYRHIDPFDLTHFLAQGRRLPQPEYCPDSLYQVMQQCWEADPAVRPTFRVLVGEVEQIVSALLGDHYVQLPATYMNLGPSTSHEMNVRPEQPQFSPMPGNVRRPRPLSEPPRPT

[6] = target: T4, Interleukin-1 receptor-associated kinase 4 (Homo sapiens, UniProt Q9NWZ3)
T4 sequence (Q9NWZ3 whole entry): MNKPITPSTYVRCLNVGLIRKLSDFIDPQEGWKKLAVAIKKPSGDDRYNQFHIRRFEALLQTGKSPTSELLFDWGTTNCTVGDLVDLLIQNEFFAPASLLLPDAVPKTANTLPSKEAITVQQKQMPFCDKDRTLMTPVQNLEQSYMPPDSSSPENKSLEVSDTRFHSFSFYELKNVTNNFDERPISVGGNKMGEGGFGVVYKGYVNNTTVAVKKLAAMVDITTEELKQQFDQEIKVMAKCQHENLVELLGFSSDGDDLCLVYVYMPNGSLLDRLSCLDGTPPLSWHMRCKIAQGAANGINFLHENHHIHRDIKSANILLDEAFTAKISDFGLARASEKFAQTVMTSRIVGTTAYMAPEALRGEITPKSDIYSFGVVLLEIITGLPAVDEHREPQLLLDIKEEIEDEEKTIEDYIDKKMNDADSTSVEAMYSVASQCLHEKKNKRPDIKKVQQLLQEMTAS

[7] = target: Mitogen-activated protein kinase 10 (Homo sapiens, UniProt P53779)
Mitogen-activated protein kinase 10, sequence (P53779 whole entry): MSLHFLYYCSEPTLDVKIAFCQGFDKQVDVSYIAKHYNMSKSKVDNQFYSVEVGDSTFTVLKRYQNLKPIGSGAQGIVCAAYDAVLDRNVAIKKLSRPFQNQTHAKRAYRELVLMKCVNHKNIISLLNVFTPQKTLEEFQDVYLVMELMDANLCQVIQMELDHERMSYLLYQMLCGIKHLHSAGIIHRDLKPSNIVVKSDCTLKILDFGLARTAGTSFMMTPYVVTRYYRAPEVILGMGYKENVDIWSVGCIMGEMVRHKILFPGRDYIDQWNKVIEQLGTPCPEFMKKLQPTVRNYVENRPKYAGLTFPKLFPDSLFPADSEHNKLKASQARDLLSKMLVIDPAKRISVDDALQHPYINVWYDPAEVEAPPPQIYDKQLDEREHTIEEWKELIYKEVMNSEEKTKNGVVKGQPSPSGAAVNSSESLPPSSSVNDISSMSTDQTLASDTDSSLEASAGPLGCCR

| Compound | Kd [1] | Kd [2] | Kd [3] | Kd [4] | Kd [5] | Kd [6] | Kd [7] |
| --- | --- | --- | --- | --- | --- | --- | --- |
| Cc1cc(Nc2nc(N[C@@H](C)c3ncc(F)cn3)ncc2Cl)n[nH]1 [AZD-1480] | 0.308 µM (active) | > 30 µM (inactive) | > 30 µM (inactive) | > 30 µM (inactive) | > 30 µM (inactive) | > 30 µM (inactive) | > 30 µM (inactive) |
| NC[C@@](O)(c1ccc(Cl)cc1)c1ccc(-c2cn[nH]c2)cc1 [AT-13148] | > 30 µM (inactive) | > 30 µM (inactive) | > 30 µM (inactive) | > 30 µM (inactive) | > 30 µM (inactive) | > 30 µM (inactive) | > 30 µM (inactive) |
| CN1CCN(c2nc(C3=C(c4c[nH]c5ccccc45)C(=O)NC3=O)c3ccccc3n2)CC1 [SOTRASTAURIN] | > 30 µM (inactive) | > 30 µM (inactive) | > 30 µM (inactive) | > 30 µM (inactive) | > 30 µM (inactive) | > 30 µM (inactive) | > 30 µM (inactive) |
| COc1cccc(Nc2ncnn3ccc(CN4CC[C@@H](N)[C@H](O)C4)c23)c1 [BMS-690514] | > 30 µM (inactive) | > 30 µM (inactive) | > 30 µM (inactive) | > 30 µM (inactive) | > 30 µM (inactive) | > 30 µM (inactive) | > 30 µM (inactive) |
| CC(C)CC(=O)Nc1[nH]nc2c1CN(C(=O)C1CCN(C)CC1)C2(C)C [PHA-793887] | > 30 µM (inactive) | > 30 µM (inactive) | > 30 µM (inactive) | > 30 µM (inactive) | > 30 µM (inactive) | > 30 µM (inactive) | > 30 µM (inactive) |
| CNC(=O)c1ccc(Nc2ncc(C(F)(F)F)c(NCc3nccnc3N(C)S(C)(=O)=O)n2)cc1 [DEFACTINIB] | > 30 µM (inactive) | > 30 µM (inactive) | > 30 µM (inactive) | > 30 µM (inactive) | > 30 µM (inactive) | > 30 µM (inactive) | > 30 µM (inactive) |
| O=c1[nH]c([C@@H]2CCCN2)nc2c1oc1ccc(Cl)cc12 | > 30 µM (inactive) | > 30 µM (inactive) | > 30 µM (inactive) | > 30 µM (inactive) | > 30 µM (inactive) | > 30 µM (inactive) | > 30 µM (inactive) |
| O=S(=O)(c1cccc2c(O)nccc12)N1CCCNCC1 [HYDROXYFASUDIL] | > 30 µM (inactive) | > 30 µM (inactive) | > 30 µM (inactive) | > 30 µM (inactive) | > 30 µM (inactive) | > 30 µM (inactive) | > 30 µM (inactive) |
| COCCN1CCN(Cc2ccc(-c3n[nH]c4c3C(=O)c3c(NC(=O)NN5CCOCC5)cccc3-4)cc2)CC1 [RGB-286638] | > 30 µM (inactive) | > 30 µM (inactive) | > 30 µM (inactive) | > 30 µM (inactive) | > 30 µM (inactive) | > 30 µM (inactive) | 0.011 µM |
| CCc1cc2c(cc1N1CCC(N3CCOCC3)CC1)C(C)(C)c1[nH]c3cc(C#N)ccc3c1C2=O [ALECTINIB] | > 30 µM (inactive) | > 30 µM (inactive) | > 30 µM (inactive) | > 30 µM (inactive) | > 30 µM (inactive) | > 30 µM (inactive) | > 30 µM (inactive) |
| COc1cc(Nc2ncc(F)c(Nc3ccc4c(n3)N(COP(=O)(O)O)C(=O)C(C)(C)O4)n2)cc(OC)c1OC [FOSTAMATINIB] | 0.57 µM (active) | > 30 µM (inactive) | > 30 µM (inactive) | > 30 µM (inactive) | 2.13 µM (active) | > 30 µM (inactive) | > 30 µM (inactive) |

Continued, values first:

| Kd [1] | Kd [2] | Kd [3] | Kd [4] | Kd [5] | Kd [6] | Kd [7] | Compound |
| --- | --- | --- | --- | --- | --- | --- | --- |
| > 30 µM (inactive) | > 30 µM (inactive) | > 30 µM (inactive) | > 30 µM (inactive) | > 30 µM (inactive) | 34.1 µM (active) | > 30 µM (inactive) | COc1cc2ncnc(Nc3ccc(O)cc3)c2cc1OC [WHI-P131] |
| > 30 µM (inactive) | > 30 µM (inactive) | > 30 µM (inactive) | > 30 µM (inactive) | > 30 µM (inactive) | > 30 µM (inactive) | > 30 µM (inactive) | CNC(=O)c1cc(COc2nnc(Nc3ccc(Cl)cc3)c3ccoc23)ccn1 [TELATINIB] |
| > 30 µM (inactive) | > 30 µM (inactive) | > 30 µM (inactive) | > 30 µM (inactive) | > 30 µM (inactive) | > 30 µM (inactive) | > 30 µM (inactive) | Cc1cc(-c2cc(OC(=O)c3ccccc3)ccc2Cl)cc2nnc(Nc3ccc(OCCN4CCCC4)cc3)nc12 [TG100-801] |
| > 30 µM (inactive) | > 30 µM (inactive) | > 30 µM (inactive) | > 30 µM (inactive) | > 30 µM (inactive) | > 30 µM (inactive) | > 30 µM (inactive) | FC(F)(F)c1ccc(CNc2ccc(Cc3c[nH]c4ncc(Cl)cc34)cn2)cn1 [PEXIDARTINIB] |
| > 30 µM (inactive) | > 30 µM (inactive) | > 30 µM (inactive) | > 30 µM (inactive) | > 30 µM (inactive) | > 30 µM (inactive) | > 30 µM (inactive) | Cc1cc(C(=O)Nc2cc(Oc3ccc4nc(NC(=O)C5CC5)cn4n3)ccc2C)n(C)n1 [TAK-593] |
| > 30 µM (inactive) | > 30 µM (inactive) | > 30 µM (inactive) | > 30 µM (inactive) | > 30 µM (inactive) | > 30 µM (inactive) | > 30 µM (inactive) | Cn1c(=O)c(F)c(Nc2ccc(I)cc2F)c2c(=O)n(C[C@@H](O)CO)cnc21 [TAK-733] |
| > 30 µM (inactive) | > 30 µM (inactive) | > 30 µM (inactive) | > 30 µM (inactive) | > 30 µM (inactive) | > 30 µM (inactive) | > 30 µM (inactive) | C=CC(=O)Nc1cccc(Nc2nc(Nc3ccc(N4CCN(C(C)=O)CC4)cc3OC)ncc2C(F)(F)F)c1 [ROCILETINIB] |
| > 30 µM (inactive) | > 30 µM (inactive) | > 30 µM (inactive) | > 30 µM (inactive) | > 30 µM (inactive) | > 30 µM (inactive) | 1.62 µM | COc1cccc2cc(-c3nc([C@H]4CC[C@H](C(=O)O)CC4)n4ncnc(N)c34)[nH]c12 [OSI-027] |
